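Step 1: Grow cells in 96-well plates. Step 2: Expose to compound for 48 hours at 5 concentrations. Step 3: Interpolate endpoints linearly; if unreached, use highest concentration. At the GI50, growth is halved. The concentration for full growth arrest is given as TGI.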
How the values were obtained:
Test in all cases: growth of human tumour cells (NCI), 48 h
[1] = system: CAKI-1 renal
[2] = system: COLO 205 colon
[3] = system: KM12 colon
[4] = system: MDA-MB-231 breast
[5] = system: NCI-H226 lung
[6] = system: NCI-H23 lung
[7] = system: RPMI-8226 leukemia
[8] = system: RXF 393 renal
[9] = system: SNB-19 CNS
[10] = system: SF-539 CNS

Row | SMILES | GI50 [1] | TGI [1] | GI50 [2] | TGI [2] | GI50 [3] | TGI [3] | GI50 [4] | TGI [4] | GI50 [5] | TGI [5] | GI50 [6] | TGI [6] | GI50 [7] | TGI [7] | GI50 [8] | TGI [8] | GI50 [9] | TGI [9] | TGI [10] | GI50 [10]
1 | O=C(O)c1ccccc1NCn1nc(-c2ccccc2O)oc1=S | > 100 µM | > 100 µM | 49.6 µM | > 100 µM | > 100 µM | > 100 µM | 16.8 µM | 47.8 µM | 86.6 µM | > 100 µM | 40.1 µM | > 100 µM | 4.14 µM | 24.5 µM | 68.9 µM | > 100 µM | > 100 µM | > 100 µM | – | –
2 | COc1ccccc1/C=C(\NC(=O)c1ccccc1)c1nc2ccc(Cl)cc2[nH]1 | – | 74.4 µM | – | 38.8 µM | – | > 100 µM | – | – | – | 58 µM | – | 69.3 µM | – | 38.5 µM | – | > 100 µM | – | > 100 µM | > 100 µM | –
3 | O=C(O)c1ccccc1C(=O)c1ccco1 | – | > 100 µM | – | > 100 µM | – | > 100 µM | – | – | – | > 100 µM | – | > 100 µM | – | – | – | > 100 µM | – | > 100 µM | > 100 µM | –
4 | CCOC1c2nc3ccccc3nc2-c2ccccc2N1C(C)=O (stereo not drawn) | – | > 100 µM | – | > 100 µM | – | > 100 µM | – | – | – | – | – | > 100 µM | – | > 100 µM | – | > 100 µM | – | > 100 µM | > 100 µM | –
5 | N#Cc1c(-c2ccccc2)c(-c2ccccc2)cc2c(=O)c3ccc(Cl)cc3[nH]c12 | – | – | – | > 100 µM | – | – | – | – | – | > 100 µM | – | > 100 µM | – | > 100 µM | – | > 100 µM | – | > 100 µM | > 100 µM | –
6 | Cc1cc(OC2OC(CO)C(O)C(O)C2O)ccc1O (stereo not drawn) | – | > 100 µM | – | > 100 µM | – | > 100 µM | – | > 100 µM | – | – | – | > 100 µM | – | > 100 µM | – | > 100 µM | – | > 100 µM | > 100 µM | –
7 | O=c1c2ccccc2nc(-c2cccc(Cl)c2)n1NC1OC(CO)C(O)C(O)C1O (stereo not drawn) | – | > 100 µM | – | > 100 µM | – | > 100 µM | – | – | – | > 100 µM | – | > 100 µM | – | > 100 µM | – | – | – | > 100 µM | > 100 µM | –
8 | CCOC(=O)C1=C(C)N(NC(N)=O)C2(N)N(NC(N)=O)C(C)=C(C(=O)OCC)C12C#N (stereo not drawn) | – | > 100 µM | – | – | – | > 100 µM | – | – | – | > 100 µM | – | – | – | > 100 µM | – | – | – | > 100 µM | > 100 µM | –
9 | O=[N+]([O-])c1cccnc1S(=O)(=O)c1ccccc1 | – | 6.98 µM | – | 11 µM | – | 36.3 µM | – | – | – | 34.7 µM | – | 30.3 µM | – | 36.4 µM | – | 3.77 µM | – | 34.1 µM | 24 µM | –
10 | N#CN1CC[C@H](C(=O)Nc2ncc(-c3ccccc3)s2)C1 | 1.65 µM | 4.26 µM | 0.195 µM | 0.449 µM | 0.592 µM | 2.78 µM | 0.41 µM | 4.65 µM | 0.693 µM | 4.19 µM | 0.705 µM | 6.46 µM | 0.27 µM | 0.854 µM | – | – | 1.11 µM | 11.3 µM | 1.38 µM | 0.294 µM
11 | COc1ccc(/C=C/C(=O)c2c(-c3ccccc3)nn(C)c(=O)c2N2CCCCC2)cc1 | – | 92.4 µM | – | 44 µM | – | – | – | – | – | – | – | 50.7 µM | – | 31.8 µM | – | 28 µM | – | 86.5 µM | 37.8 µM | –
12 | Cc1ccc(S(=O)(=O)Nc2ccccc2C(C)(C)C)cc1 | – | 59.3 µM | – | – | – | 47.1 µM | – | – | – | 56.3 µM | – | 46.3 µM | – | 54.3 µM | – | 26.8 µM | – | – | 33.9 µM | –
13 | CNC(=O)OCc1nc(SSc2nc(COC(=O)NC)c(COC(=O)NC)n2C)n(C)c1COC(=O)NC | – | > 100 µM | – | > 100 µM | – | > 100 µM | – | – | – | > 100 µM | – | > 100 µM | – | > 100 µM | – | > 100 µM | – | > 100 µM | > 100 µM | –
14 | COc1ccc(-c2cnc(-c3ccncc3-c3cccc(OC)c3)o2)cc1 | 0.866 µM | 33 µM | 0.0375 µM | 1.23 µM | 0.0471 µM | 1.82 µM | 0.0591 µM | 19.3 µM | 0.153 µM | 15.6 µM | 0.0383 µM | 13 µM | 0.0387 µM | 5.75 µM | – | – | 0.0451 µM | 19.5 µM | 0.0776 µM | 0.0268 µM
15 | CCOC(=O)C[C@@]12CCCN[C@]1(C)CCc1ccccc12 | – | > 100 µM | – | – | – | > 100 µM | – | – | – | – | – | > 100 µM | – | > 100 µM | – | > 100 µM | – | > 100 µM | > 100 µM | –
16 | Cc1ccc(-n2c3nc(=O)n(C)c(=O)c-3nc3ccccc32)c(C)c1 | – | 57.7 µM | – | 13 µM | – | 26.5 µM | – | – | – | 30.7 µM | – | 7.75 µM | – | 42.4 µM | – | 34.5 µM | – | 16.1 µM | 26.4 µM | –
17 | CC(C)(C)C1=NO[C@H]2[C@@H](NC(=O)c3ccccc3)CC[C@@H]12 | – | > 100 µM | – | > 100 µM | – | > 100 µM | – | – | – | > 100 µM | – | > 100 µM | – | > 100 µM | – | > 100 µM | – | > 100 µM | > 100 µM | –
18 | CS(=O)(=O)OCCN1CCN(C(=O)c2ccc(Cl)c3c(Nc4ccc(S(=O)(=O)N=C(N)N)cc4)c4ccccc4nc23)CC1 | – | > 100 µM | – | > 100 µM | – | > 100 µM | – | – | – | > 100 µM | – | > 100 µM | – | > 100 µM | – | > 100 µM | – | > 100 µM | > 100 µM | –
19 | C[n+]1cn(CC(=O)c2ccccc2)c(C(N)=O)c1N | – | > 100 µM | – | > 100 µM | – | > 100 µM | – | – | – | > 100 µM | – | > 100 µM | – | > 100 µM | – | – | – | > 100 µM | > 100 µM | –
20 | O=C1C2C(C(=O)N1Cc1ccccc1)N(Cc1ccccc1)C(=O)N2Cc1ccccc1 (stereo not drawn) | – | > 100 µM | – | > 100 µM | – | > 100 µM | – | – | – | > 100 µM | – | > 100 µM | – | > 100 µM | – | > 100 µM | – | > 100 µM | > 100 µM | –
21 | CCN(CC)CCCC(Nc1c2ccc(Cl)cc2nc2ccc(OC)cc12)c1ccc(Cl)cc1 (stereo not drawn) | 1.17 µM | 2.44 µM | 1.31 µM | 2.87 µM | 1.52 µM | 2.99 µM | 0.67 µM | 2.24 µM | – | – | 1.43 µM | 2.98 µM | 0.449 µM | 1.8 µM | 1.03 µM | 2.31 µM | – | – | 3.1 µM | 1.56 µM
